Assay results: ChEMBL document CHEMBL1201862, “PubChem BioAssay data set” (2004)
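All cell lines were grown in 96-well plates and treated with compound for 48 hours. The concentration for 50% growth inhibition is given as GI50.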 The source made the active and inactive calls. No stated cut-off is given here; in the data, active = GI50 up to about 1.1 µM and inactive = higher.

Assays:
Assay in all cases: NCI tumour cell line growth inhibition, 48 h
786-0 = tested on: 786-0
A498 = tested on: A498
A549 = tested on: A549
ACHN = tested on: ACHN
BT-549 = tested on: BT-549
CAKI-1 = tested on: CAKI-1
CCRF-CEM = tested on: CCRF-CEM
COLO 205 = tested on: COLO 205
DU-145 = tested on: DU-145
HCC 2998 = tested on: HCC 2998
HCT-116 = tested on: HCT-116
HCT-15 = tested on: HCT-15
HOP-62 = tested on: HOP-62
HOP-92 = tested on: HOP-92
Hs-578T = tested on: Hs-578T
IGROV-1 = tested on: IGROV-1
K562 = tested on: K562
KM12 = tested on: KM12
LOX IMVI = tested on: LOX IMVI
M14 = tested on: M14
MCF7 = tested on: MCF7
MDA-MB-231 = tested on: MDA-MB-231
MDA-MB-435 = tested on: MDA-MB-435
NCI-H226 = tested on: NCI-H226
NCI-H23 = tested on: NCI-H23
NCI-H460 = tested on: NCI-H460
NCI-H522 = tested on: NCI-H522
NCI/ADR-RES = tested on: NCI/ADR-RES
OVCAR-3 = tested on: OVCAR-3
OVCAR-4 = tested on: OVCAR-4
OVCAR-8 = tested on: OVCAR-8
PC-3 = tested on: PC-3
RPMI-8226 = tested on: RPMI-8226
RXF 393 = tested on: RXF 393
SF-268 = tested on: SF-268
SF-295 = tested on: SF-295
SF-539 = tested on: SF-539
SK-MEL-28 = tested on: SK-MEL-28
SK-MEL-2 = tested on: SK-MEL-2
SK-MEL-5 = tested on: SK-MEL-5
SK-OV-3 = tested on: SK-OV-3
SN12C = tested on: SN12C
SNB-19 = tested on: SNB-19
SNB-75 = tested on: SNB-75
SR = tested on: SR
SW-620 = tested on: SW-620
T47D = tested on: T47D
TK-10 = tested on: TK-10
U-251 = tested on: U-251
UACC-257 = tested on: UACC-257
UACC-62 = tested on: UACC-62
UO-31 = tested on: UO-31
EKVX = tested on: EKVX
HL-60 = tested on: HL-60
HT-29 = tested on: HT-29
MDA-N = tested on: MDA-N
MOLT-4 = tested on: MOLT-4
Malme-3M = tested on: Malme-3M
OVCAR-5 = tested on: OVCAR-5

C=CCN1C(=O)/C(=C/c2ccccc2)N=C1SC/C=C/C
GI50 (786-0): 42.7 µM (inactive) | GI50 (A498): 43.7 µM (inactive) | GI50 (A549): 39.3 µM (inactive) | GI50 (ACHN): 80.4 µM (inactive) | GI50 (BT-549): 51.3 µM (inactive) | GI50 (CAKI-1): > 100 µM (inactive) | GI50 (CCRF-CEM): 27.9 µM (inactive) | GI50 (COLO 205): 52.2 µM (inactive) | GI50 (DU-145): 57.5 µM (inactive) | GI50 (HCC 2998): 28.3 µM (inactive) | GI50 (HCT-116): 34.5 µM (inactive) | GI50 (HCT-15): 47.5 µM | GI50 (HOP-62): > 100 µM (inactive) | GI50 (HOP-92): 12.2 µM (inactive) | GI50 (Hs-578T): 69.5 µM (inactive) | GI50 (IGROV-1): > 100 µM (inactive) | GI50 (K562): 0.0146 µM (active) | GI50 (KM12): 37.4 µM (inactive) | GI50 (LOX IMVI): 49.1 µM (inactive) | GI50 (M14): 71.1 µM (inactive) | GI50 (MCF7): 33.1 µM (inactive) | GI50 (MDA-MB-231): 86.7 µM (inactive) | GI50 (MDA-MB-435): 40.8 µM (inactive) | GI50 (NCI-H226): 31.8 µM (inactive) | GI50 (NCI-H23): 58.7 µM (inactive) | GI50 (NCI-H460): 43.8 µM (inactive) | GI50 (NCI-H522): 33 µM (inactive) | GI50 (NCI/ADR-RES): 49.4 µM (inactive) | GI50 (OVCAR-3): > 100 µM (inactive) | GI50 (OVCAR-4): 31.2 µM (inactive) | GI50 (OVCAR-8): 45.1 µM (inactive) | GI50 (PC-3): 22.3 µM (inactive) | GI50 (RPMI-8226): 15.7 µM (inactive) | GI50 (RXF 393): 15.2 µM (inactive) | GI50 (SF-268): 57.9 µM (inactive) | GI50 (SF-295): 61.2 µM (inactive) | GI50 (SF-539): > 100 µM (inactive) | GI50 (SK-MEL-28): 69.3 µM (inactive) | GI50 (SK-MEL-2): 26.2 µM (inactive) | GI50 (SK-MEL-5): 18.4 µM (inactive) | GI50 (SK-OV-3): > 100 µM (inactive) | GI50 (SN12C): 40.2 µM (inactive) | GI50 (SNB-19): > 100 µM (inactive) | GI50 (SNB-75): 46.2 µM (inactive) | GI50 (SR): 6.67 µM (inactive) | GI50 (SW-620): 46.1 µM (inactive) | GI50 (T47D): 20.2 µM (inactive) | GI50 (TK-10): 79.1 µM (inactive) | GI50 (U-251): 48.1 µM (inactive) | GI50 (UACC-257): 28.3 µM (inactive) | GI50 (UACC-62): 51.5 µM (inactive) | GI50 (UO-31): 39.9 µM (inactive)

CC(=O)Nc1ccc2cc3c(nc2n1)c1cccnc1n3S(=O)(=O)c1ccccc1
GI50 (786-0): 8.02 µM (inactive) | GI50 (A498): > 100 µM (inactive) | GI50 (A549): > 100 µM (inactive) | GI50 (ACHN): > 100 µM (inactive) | GI50 (BT-549): > 100 µM (inactive) | GI50 (CAKI-1): > 100 µM (inactive) | GI50 (CCRF-CEM): > 100 µM (inactive) | GI50 (COLO 205): > 100 µM (inactive) | GI50 (EKVX): > 100 µM (inactive) | GI50 (HCC 2998): > 100 µM (inactive) | GI50 (HCT-116): 1.36 µM (inactive) | GI50 (HCT-15): > 100 µM | GI50 (HL-60): > 100 µM (inactive) | GI50 (HOP-62): > 100 µM (inactive) | GI50 (HOP-92): > 100 µM (inactive) | GI50 (HT-29): > 100 µM (inactive) | GI50 (Hs-578T): > 100 µM (inactive) | GI50 (IGROV-1): > 100 µM (inactive) | GI50 (K562): > 100 µM (inactive) | GI50 (KM12): > 100 µM (inactive) | GI50 (LOX IMVI): 2.66 µM (inactive) | GI50 (M14): > 100 µM (inactive) | GI50 (MCF7): > 100 µM (inactive) | GI50 (MDA-MB-231): > 100 µM (inactive) | GI50 (MDA-MB-435): > 100 µM (inactive) | GI50 (MDA-N): > 100 µM (inactive) | GI50 (MOLT-4): > 100 µM (inactive) | GI50 (Malme-3M): > 100 µM (inactive) | GI50 (NCI-H226): > 100 µM (inactive) | GI50 (NCI-H23): 10.5 µM (inactive) | GI50 (NCI-H460): > 100 µM (inactive) | GI50 (NCI-H522): > 100 µM (inactive) | GI50 (NCI/ADR-RES): > 100 µM (inactive) | GI50 (OVCAR-3): > 100 µM (inactive) | GI50 (OVCAR-4): > 100 µM (inactive) | GI50 (OVCAR-5): > 100 µM (inactive) | GI50 (OVCAR-8): > 100 µM (inactive) | GI50 (PC-3): > 100 µM (inactive) | GI50 (RPMI-8226): 19.1 µM (inactive) | GI50 (RXF 393): > 100 µM (inactive) | GI50 (SF-268): > 100 µM (inactive) | GI50 (SF-295): > 100 µM (inactive) | GI50 (SK-MEL-28): > 100 µM (inactive) | GI50 (SK-MEL-2): > 100 µM (inactive) | GI50 (SK-MEL-5): > 100 µM (inactive) | GI50 (SK-OV-3): > 100 µM (inactive) | GI50 (SN12C): > 100 µM (inactive) | GI50 (SNB-19): > 100 µM (inactive) | GI50 (SNB-75): 59.6 µM (inactive) | GI50 (SR): 28.3 µM (inactive) | GI50 (SW-620): > 100 µM (inactive) | GI50 (TK-10): > 100 µM (inactive) | GI50 (U-251): > 100 µM (inactive) | GI50 (UACC-257): > 100 µM (inactive) | GI50 (UACC-62): > 100 µM (inactive) | GI50 (UO-31): 0.195 µM (active)
